The source of these data is ChEMBL document CHEMBL3352707, “Antimycobacterial activity of natural products and synthetic agents: pyrrolodiquinolines and vermelhotin as anti-tubercular leads against clinical multidrug resistant isolates of Mycobacterium tuberculosis” (Eur J Med Chem, 2015).

Holding throughout (format): functional
In test [1] the test system is Mycobacterium tuberculosis. Put plainly: Antimycobacterial activity against pyrazinamide-resistant Mycobacterium tuberculosis H37Rv ATCC 35828 after 7 days by microplate Alamar blue assay. To be noted: H37Rv ATCC 35828, 168 h.
The subject of test [2] is Mycobacterium tuberculosis. Put plainly: Antimycobacterial activity against Ethionamide-resistant Mycobacterium tuberculosis H37Rv ATCC 35830 after 7 days by microplate Alamar blue assay. Conditions: H37Rv ATCC 35830, 168 h.
Test [3] concerns Mycobacterium tuberculosis. Put plainly: Antimycobacterial activity against isoniazid, rifampin, ethambutol, ofloxacin-resistant Mycobacterium tuberculosis after 7 days by microplate Alamar blue assay. Conditions: 168 h.
The test system of test [4] is Mycobacterium tuberculosis. Put plainly: Antimycobacterial activity against isoniazid, rifampin, ethambutol-resistant Mycobacterium tuberculosis after 7 days by microplate Alamar blue assay. To be noted: 168 h.
In test [5] the test system is Mycobacterium tuberculosis. Put plainly: Antimycobacterial activity against isoniazid, rifampin, ethambutol, streptomycin-resistant Mycobacterium tuberculosis after 7 days by microplate Alamar blue assay. Conditions: 168 h.
The subject of test [6] is Mycobacterium tuberculosis. Briefly: Antimycobacterial activity against isoniazid, rifampin, streptomycin, ofloxacin-resistant Mycobacterium tuberculosis after 7 days by microplate Alamar blue assay. To be noted: 168 h.
Test [7] relates to Mycobacterium tuberculosis. Put plainly: Antimycobacterial activity against isoniazid, rifampin, streptomycin-resistant Mycobacterium tuberculosis after 7 days by microplate Alamar blue assay. To be noted: 168 h.
Test [8] concerns Mycobacterium tuberculosis. Put plainly: Antimycobacterial activity against isoniazid, rifampin, ethambutol, streptomycin, ofloxacin-resistant Mycobacterium tuberculosis after 7 days by microplate Alamar blue assay. Conditions: 168 h.
Test [9] deals with Mycobacterium tuberculosis. Put plainly: Antimycobacterial activity against isoniazid, rifampin-resistant Mycobacterium tuberculosis after 7 days by microplate Alamar blue assay. Conditions: 168 h.

Values after ≈ are worked out from the molar mass of the structure shown. Bounds are passed on as bounds.

For the compound `C[n+]1cc2c(cn3c4ccccc4ccc23)c2ccccc21.[I-]`, the MIC in test [1] and in [2] was 6.2 µg/mL each time.
Take `CN1Cc2c(cn3c2ccc2ccccc23)-c2ccccc21`: the MIC in [1] turned out to be 3.1 µg/mL (≈ 10.9 µM); in test [2], 6.2 µg/mL (≈ 21.8 µM).
For the compound `CC[C@@H](CO)NCCN[C@@H](CC)CO` [ETHAMBUTOL], the MIC in [3] is at least 8 µg/mL; in test [4] it was at least 8 µg/mL; in [5], at least 8 µg/mL; in [6] it was at most 2 µg/mL; in [7], at most 2 µg/mL; in [8], at least 8 µg/mL. The minimal inhibitory concentration (MIC) in test [9] is at most 2 µg/mL.
Take `NNC(=O)c1ccncc1` [ISONIAZID]: the MIC in test [3], in [4], in [5], in test [6], in test [7] and in [8] was at least 2 µg/mL in each case. In test [9], the MIC was at least 2 µg/mL.
`CC1COc2c(N3CCN(C)CC3)c(F)cc3c(=O)c(C(=O)O)cn1c23` (stereo unspecified) [OFLOXACIN]: the MIC was at least 4 µg/mL in test [3]; at most 2 µg/mL in test [4]; at most 2 µg/mL in [5]; at least 4 µg/mL in test [6]; at most 2 µg/mL in [7]; at least 4 µg/mL in [8]. Besides, in test [9], the MIC is at most 2 µg/mL.
Take `CO[C@H]1/C=C/O[C@@]2(C)Oc3c(C)c(O)c4c(O)c(c(/C=N/N5CCN(C)CC5)c(O)c4c3C2=O)NC(=O)/C(C)=C\C=C\[C@H](C)[C@H](O)[C@@H](C)[C@@H](O)[C@@H](C)[C@H](OC(C)=O)[C@@H]1C` [RIFAMPIN]: the MIC in test [3], in test [4], in test [5], in test [6], in test [7] and in test [8] was at least 2 µg/mL each time. In test [9], this compound registered an MIC of at least 2 µg/mL.
For the compound `CN[C@@H]1[C@H](O[C@H]2[C@H](O[C@H]3[C@H](O)[C@@H](O)[C@H](N=C(N)N)[C@@H](O)[C@@H]3N=C(N)N)O[C@@H](C)[C@]2(O)C=O)O[C@@H](CO)[C@H](O)[C@H]1O` [STREPTOMYCIN], the MIC in [3] is at most 2 µg/mL; in test [4], at most 2 µg/mL; in [5], at least 8 µg/mL; in [6], at least 8 µg/mL; in test [7], at least 8 µg/mL; in test [8], at least 8 µg/mL. Further, the minimal inhibitory concentration (MIC) in test [9] was at most 2 µg/mL.
Take `C/C=C/C1=CC=C/C(=C2\C(=O)CNC2=O)O1` [VERMELHOTIN]: the minimum inhibitory concentration (MIC) in [1] amounted to 6.2 µg/mL (≈ 28.5 µM); in test [2], 3.1 µg/mL (≈ 14.3 µM).
